Results taken from US20260216169A1, “NAPHTHYLAMIDE COMPOUND, AND PREPARATION METHOD THEREFOR AND USE THEREOF” (SHENZHEN CHIPSCREEN BIOSCIENCES CO., LTD., priority 2022, published 2026).

Tests used:
VEGFR2 = molecular target: T1, VEGFR2 (Homo sapiens, UniProt P35968); test: HTRF KinEASE test against VEGFR2, reported as relative selectivity IC50-VEGFR2/IC50-Aurora B; type: biochemical; details: ratio of IC50 against VEGFR2 to IC50 against Aurora B
T1 construct: purchased Carna 08-191
Method: (§1) Preparation of working solutions of compounds in DMSO with gradient concentrations: 0.2 mM solutions of the compounds in DMSO were prepared and serially diluted with DMSO to form working solutions with 10 gradient concentrations (corresponding to final compound concentrations of 1000 nM, 300 nM, 100 nM, 30 nM, 10 nM, 3 nM, 1 nM, 0.3 nM, 0.1 nM, and 0.03 nM in the reaction system).
(§2) Tests of inhibitory activity against Aurora B kinase and VEGFR2: The half maximal inhibitory concentrations (IC50) of the compounds against Aurora B kinase and VEGFR2 were determined using HTRF KinEASE-TK kit (Cisbio, Cat #62TKOPEC) and HTRF KinEASE-STK kit (Cisbio, Cat #61ST2BLE). A 2× kinase & Metal solution (Aurora B/Cat #05-102 and VEGFR2/Cat #08-191, both purchased from Carna) and a 2× Substrate & ATP solution (for Aurora B and VEGFR2, substrates S2 and TK were used, respectively) were prepared according to the kit instructions. The working solutions of the test compounds with gradient concentrations were added to a 384-well plate at 25 nL/well, and 2.5 μL of the 2× kinase & Metal solution was added to each well. The plate was sealed with a plate-sealing film, well shaken, centrifuged, and then incubated at 25° C. for 10 min. Then, the 2× Substrate & ATP solution was added at 2.5 μL/well, and the plate was incubated again at 25° C. for 30 min. Finally, a 2× XL665 & Antibody kinase detection reaction solution was added at 5 μL/well. After the plate was incubated at 25° C. for 60 min, the fluorescence signals at wavelengths of 665 nm and 620 nm in each well were measured by a microplate reader.
(§3) The 665 nm/620 nm fluorescence signal ratio (X) of each well was calculated. With the compound-free well as a negative control (Y) and the enzyme-free well as a positive control (Z), the inhibition rate of the compound in each test well against the corresponding kinase was calculated using the formula: inhibition (%)=100%−(X−Z)/(Y−Z)×100%, and the half maximal inhibitory concentration (IC50) of each compound against the corresponding kinase was calculated by GraphPad 7.0 software.

Molt-4 cells = test: Effects on tumor cell cycle, PI staining and flow cytometry; type: cell-based, human; details: 48 h
Text: When the activity of Aurora B kinase is inhibited in tumor cells, the arrangement and separation of chromosomes are blocked, leading to cytokinesis failure and the formation of tetraploid or polyploid cells. Moreover, severe genomic instability and mitotic catastrophe result in apoptosis. The intracellular DNA content can be mapped with propidium iodide (PI), a fluorescent dye that specifically binds to nucleic acid, so that cell states can be distinguished into sub-G0/G1 (apoptosis), G0/G1, S, G2/M (tetraploid), and polyploid states.
Experimental process: Molt-4 cells (human acute lymphoblastic leukemia cells, CRL-1582) were purchased from the American Type Culture Collection (ATCC). Molt-4 cells in the logarithmic growth phase were collected from suspension culture and counted. The cells were seeded into a 6-well plate at 10^6 cells/well and cultured overnight under normal conditions. The test compounds were prepared as 1 mM and 3 mM solutions in DMSO, and the solutions in DMSO were diluted 50-fold with culture medium. Finally, the above solutions were added to the culture system in a volume ratio of 1:19, achieving a final compound concentration of 1 μM or 3 μM in each well. After 48 h of incubation, the cells were collected by centrifugation. Each cell sample was resuspended in 300 μL of PBS, and the suspension was added dropwise to 700 μL of pre-cooled absolute ethanol. Then the mixture was gently inverted several times for thorough mixing to complete cell collection and fixation. The samples were left to stand at 4° C. for more than 12 h and then analyzed by flow cytometry.
A working dye solution was prepared by homogeneously mixing PBS, a 10 mg/mL PI stock solution, and a 10 mg/mL RNase A solution in a ratio of 1000:5:2. The fixed cell samples were centrifuged at 4° C. and 1000 rpm for 10 min. The supernatants were completely removed using a pipette, and the cells were washed twice with PBS and resuspended in the above working dye solution at […]. After incubation in a dark place at 37° C. for 30 min, the cells were filtered using a 200-mesh stainless steel strainer, and the filtrate was loaded onto a flow cytometer for cell cycle analysis (10,000 cells counted per sample).
Histograms showing DNA contents were obtained from the flow cytometry analysis, and the cell cycle distribution in each sample was analyzed using the flow cytometry data analysis software FlowJo. The mean (X) and standard deviation (SD) were calculated, and data were represented as X±SD. The apoptosis and the proportions of tetraploid and polyploid cells after Molt-4 cells were treated with different doses of the test compounds are shown in Table 3 below.

[1] = Brain permeation assay in mice; type: in vivo; details: B/C, mouse, oral; female mice, 5 mg/kg intragastric, 4 h after administration; read-out: Brain permeation (ratio of compound concentration in brain tissue to concentration in plasma)
Method: The objective of this example was to test whether the compounds of the present disclosure are able to cross the blood-brain barrier (BBB). The compounds of the present disclosure were dissolved in a vehicle containing 5% dimethyl sulfoxide, 60% 1,3-propanediol, and 35% purified water, and intragastrically administered to B/C female mice aged 6 weeks (purchased from Guangdong Medical Laboratory Animal Center) at 5 mg/kg. The animals were sacrificed 4 h after the administration, and blood and brain tissue samples were collected. The blood samples were anticoagulated with K2-EDTA and centrifuged at 5000 rpm for 5 min to separate plasma. The brain tissue samples were accurately weighed and homogenized with a certain amount of phosphate-buffered saline (PBS) solution, and the biological samples were stored at −80° C. before analysis. After sample extraction, the compound concentration was determined using a liquid chromatography-tandem mass spectrometry (LC-MS/MS) system. Brain permeation was defined as the ratio of the compound concentration in brain tissue to the concentration in plasma.

PANC02 cells = test: Anti-tumor efficacy in PANC02 mouse pancreatic cancer graft tumor model; type: in vivo, C57BL/6 mice; details: for Mean tumor volumes (mm^3 ± SEM), Day 9 / Tumor volume inhibition rate (% TGI), Day 9: 10 mg/kg/day intragastric once daily; for Mean tumor volumes (mm^3 ± SEM), Day 0: 10 mg/kg/day intragastric, grouping and administration Day 0
Text: A mouse PANC02 pancreatic cancer graft tumor model was constructed: the experimental animals were C57BL/6 mice (female, 6 weeks old), the tumor cells were PANC02 cells (mouse pancreatic cancer cells), and the cell culture medium was a DMEM culture medium containing 1% double antibiotic and 10% fetal bovine serum. PANC02 cells in the logarithmic growth phase and in good condition were collected and inoculated subcutaneously into the left flank of C57BL/6 mice at a concentration of 0.9×10^6 cells/0.2 mL. The long diameters (a, mm) and short diameters (b, mm) of the tumors were measured using a vernier caliper, and tumor volume (V, mm^3) was calculated using the formula: V=½a×b^2. Tumor volume was measured 2-3 times weekly using the vernier caliper. When the mean tumor volumes of the mice reached 190 mm^3 or above, the mice were divided into 4 groups of 8 and dosed, and the day of grouping was represented by day 0. The groups were as follows: a solvent control group (0.2% aqueous solution of CMC-Na), a compound I-9 group (10 mg/kg/day), a control molecule 01 (chiauranib) group (10 mg/kg/day), and a control molecule 02 group (10 mg/kg/day). All four groups received intragastric administration once daily for consecutive days, and the experiment was terminated on the day of the last dose.
The tumor volume results were represented as mean and standard error (Mean±S.E.M). Intergroup comparisons were performed using the Mann Whitney test. If p<0.05, the difference is considered to be statistically significant. The tumor volume inhibition rate (TGI) was calculated using the formula: TGI (%)=[1−(Ti−T0)/(Vi−V0)]×100% (Ti: mean tumor volume of the treatment group on day i of administration; TO: mean tumor volume of the treatment group on day 0 of administration; Vi: mean tumor volume of the solvent control group on day i of administration; V0: mean tumor volume of the solvent control group on day 0 of administration).

Aurora B kinase [2] = molecular target: T2, Aurora B kinase (Homo sapiens, UniProt Q96GD4); test: In vitro cytological assays of Aurora B kinase inhibition; type: cell-based; parameters: dose or concentration left out as unconfirmed
Target sequence in this assay (Q96GD4 whole entry): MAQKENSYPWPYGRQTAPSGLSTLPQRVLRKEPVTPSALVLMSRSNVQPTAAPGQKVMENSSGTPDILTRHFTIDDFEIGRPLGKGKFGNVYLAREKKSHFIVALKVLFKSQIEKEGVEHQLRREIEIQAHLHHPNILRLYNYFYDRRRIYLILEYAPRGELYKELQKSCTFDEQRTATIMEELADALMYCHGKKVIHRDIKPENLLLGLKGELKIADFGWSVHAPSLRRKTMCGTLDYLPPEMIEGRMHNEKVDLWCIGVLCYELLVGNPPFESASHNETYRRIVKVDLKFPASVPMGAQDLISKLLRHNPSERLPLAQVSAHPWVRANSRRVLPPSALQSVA

[3] = human, 65-mg treatment group, phase I; cited from earlier work
Aurora B kinase [4] = molecular target: T2, Aurora B kinase; test: HTRF KinEASE test of inhibitory activity against Aurora B kinase; type: biochemical; parameters: purchased Carna 05-102; details: Carna kinase, substrate S2
Method: as §1, §2, §3
Target sequence in this assay (Q96GD4 whole entry): as above
Target sequence in this assay (Q9NQS7 803-916 partner limits assumed): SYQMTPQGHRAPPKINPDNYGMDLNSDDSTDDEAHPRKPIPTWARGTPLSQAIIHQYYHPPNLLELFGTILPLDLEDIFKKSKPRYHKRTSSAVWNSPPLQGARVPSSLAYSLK

T1 sequence (P35968 790-1356 limits assumed): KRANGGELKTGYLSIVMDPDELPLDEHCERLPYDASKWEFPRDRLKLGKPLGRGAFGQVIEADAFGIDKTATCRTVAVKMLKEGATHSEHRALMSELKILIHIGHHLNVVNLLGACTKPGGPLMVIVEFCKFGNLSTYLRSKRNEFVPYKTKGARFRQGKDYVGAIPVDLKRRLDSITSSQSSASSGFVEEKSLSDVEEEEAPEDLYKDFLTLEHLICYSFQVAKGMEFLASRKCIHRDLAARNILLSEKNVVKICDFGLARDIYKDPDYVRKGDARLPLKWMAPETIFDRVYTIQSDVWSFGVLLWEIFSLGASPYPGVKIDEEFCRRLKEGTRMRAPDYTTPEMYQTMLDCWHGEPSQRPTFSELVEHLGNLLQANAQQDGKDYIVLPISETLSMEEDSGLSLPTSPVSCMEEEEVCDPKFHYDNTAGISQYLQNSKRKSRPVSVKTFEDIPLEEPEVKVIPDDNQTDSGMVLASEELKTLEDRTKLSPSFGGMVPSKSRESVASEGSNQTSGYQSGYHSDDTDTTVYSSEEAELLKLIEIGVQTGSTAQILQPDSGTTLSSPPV

Row | Selectivity for Aurora B IC50-VEGFR2/IC50-Aurora B (VEGFR2) | Kp at 4 h [1] | IC50 (Aurora B kinase [4]) | Compound | Apoptosis (%) DNA < 2N (Molt-4 cells; dose 1 μM) | Polyploid (%) DNA > 4N (Molt-4 cells; dose 1 μM) | Tetraploid (%) DNA = 4N (Molt-4 cells; dose 1 μM) | Total (apoptosis + tetraploid + polyploid) (Molt-4 cells; dose 1 μM) | Apoptosis (%) DNA < 2N (Molt-4 cells; dose 3 μM) | Polyploid (%) DNA > 4N (Molt-4 cells; dose 3 μM) | Tetraploid (%) DNA = 4N (Molt-4 cells; dose 3 μM) | Total (apoptosis + tetraploid + polyploid) (Molt-4 cells; dose 3 μM) | Mean tumor volumes (mm^3 ± SEM), Day 9 (PANC02 cells) | Tumor volume inhibition rate (% TGI), Day 9 (PANC02 cells) | Mean tumor volumes (mm^3 ± SEM), Day 0 (PANC02 cells) | other results
1 | 1.54 | 0.28 | 10.8 nM | COc1ccc2c(Oc3ccc4c(C(=O)Nc5ccccc5N)cccc4c3)ccnc2c1 [Control molecule 01, chiauranib, reference compound] | 10.23 ± 0.67% | 3.73 ± 2.95% | 14.80 ± 6.51% | 28.76 | 16.40 ± 6.65% | 6.40 ± 5.66% | 16.25 ± 8.13% | 39.05 | 278.4 ± 35.6 mm^3 | 74.6% | 191.5 ± 33.9 mm^3 | Tumor volume inhibition rate (% TGI), Day 9 (PANC02 cells; listed as control molecule 01): 74.6%; Inhibitory activity against Aurora B kinase (Aurora B kinase [2]): relatively weak inhibitory activity; Dose-limiting toxicity (DLT) [3]: grade 3 hypertension
2 | 17.57 | 0.6 | 1.79 nM | COc1ccc2c(Oc3ccc4c(C(=O)Nc5ccc(F)c(F)c5N)cccc4c3)ccnc2c1 [Compound I-9] | 24.60 ± 8.06% | 55.15 ± 15.20% | 6.07 ± 7.25% | 85.82 | 21.35 ± 5.87% | 56.10 ± 12.02% | 5.39 ± 6.10% | 82.84 | 145.9 ± 38.5 mm^3 | 114.0% | 193.9 ± 38.5 mm^3 | Tumor volume compared with solvent control group (PANC02 cells; Day 9, Mann Whitney test, p<0.001): significantly reduced tumor volumes; Tumor volume compared with control molecule 01 (chiauranib) group (PANC02 cells; Day 9, Mann Whitney test, p<0.01): significantly reduced tumor volumes; Tumor volume compared with control molecule 02 group (PANC02 cells; Day 9, Mann Whitney test, p<0.05): significantly reduced tumor volumes
3 | 4.16 | 0.27 | 2.08 nM | COc1ccc2c(Oc3ccc4c(C(=O)Nc5ccc(F)cc5N)cccc4c3)ccnc2c1 [Control molecule 02, reference compound] | 10.07 ± 1.18% | 7.94 ± 3.77% | 18.05 ± 0.35% | 36.06 | 23.80 ± 2.26% | 55.70 ± 1.41% | 8.40 ± 4.96% | 87.90 | 299.3 ± 68.2 mm^3 | 68.9% | 192.7 ± 36 mm^3 | Tumor volume inhibition rate (% TGI), Day 9 (PANC02 cells; listed as control molecule 02): 68.9%
